# Structures can show the parent of a compound that is named as a salt.
# Legend:
# [1] = molecular target: human α7 nAChRs transiently expressed in Xenopus laevis oocytes (Homo sapiens (Human), UniProt P36544); assay: Oocyte electrophysiology screen (TEVC); assay type: cell-based; conditions: 0.01 mM test compound, peak current relative to 0.2 mM ACh
# Summary of the method: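 Oocytes expressing human α7 were clamped at −80 mV by TEVC. After a 0.2 mM ACh control pulse, test compound was applied at 0.01 mM for 30 s. Agonist response is peak current as % of the ACh response, in triplicate.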
# [2] = test system: male Wistar rats; assay: Novel Object Recognition task (natural forgetting); assay type: in vivo, rat; conditions: sub-cutaneous, 30 minutes before T1, 48-hour retention interval, p<0.05 novel vs. familiar object
# Text: Novel Object Recognition Task:
# The Novel Object Recognition (NOR) task is a behavioral assay commonly used to evaluate cognition, particularly recognition memory, in rodent models of CNS disorders. This test is based on the spontaneous tendency of rodents to spend more time exploring a novel object compared to a familiar one. The choice to explore the novel object reflects the use of learning and recognition memory. The assay is commonly used to evaluate potential therapeutic agents for Alzheimer's disease, other neurodegenerative diseases and psychiatric disorders.
# Male Wistar rats (Harlan Laboratories) weighing 350-400 grams were housed under a reversed light cycle and are tested during the dark cycle. Testing was done under low lux conditions, measured to be ˜2-7 lux under red light. Animals were habituated and weighed one day prior to testing. During habituation, animals were placed in a cylindrical arena and allowed to explore for 3 minutes. Training (T1) was conducted approximately 24 hours later, with one set of identical objects placed on opposite sides of the arena. Animals were allowed to explore the objects in 3-minute sessions. Animals were dosed with a designated treatment 15-60 minutes prior to testing depending on the pharmacokinetic profile of the compound before the start of T1. Drug or vehicle was dosed subcutaneously based on body weight at 5 mL/kg. Testing (T2) was done at 48 hours after T1. During testing, one familiar object is replaced with a novel object. Animals were allowed to explore both objects in 3-minute sessions.
# Animals were tracked using Noldus Ethovision XT (EthoVision XT version: 8.5, Noldus Inc. Wageningen, Netherlands) tracking software, using a 2 centimeter (cm) perimeter for each object as a separate zone. The test arena consisted of a cylinder, 80 cm diameter with 40 cm high walls of black acrylic that was opaque and matte. […]
# Contact time was defined as the amount of time (seconds) an animal spent within the 2 cm perimeter of an object. […] Statistical significance was determined using a Mann Whitney U-test and the criterion was set at p<0.05. […]
# [3] = molecular target: human 5-HT3 serotonin receptors (Homo sapiens (Human), UniProt P46098); assay: [3H]BRL 43694 competition binding; conditions: CHO cell membranes, [3H]BRL 43694, Cheng Prusoff; read-out: h-5HT3 Ki
# Chain of human 5-HT3 serotonin receptors (P46098 24-478): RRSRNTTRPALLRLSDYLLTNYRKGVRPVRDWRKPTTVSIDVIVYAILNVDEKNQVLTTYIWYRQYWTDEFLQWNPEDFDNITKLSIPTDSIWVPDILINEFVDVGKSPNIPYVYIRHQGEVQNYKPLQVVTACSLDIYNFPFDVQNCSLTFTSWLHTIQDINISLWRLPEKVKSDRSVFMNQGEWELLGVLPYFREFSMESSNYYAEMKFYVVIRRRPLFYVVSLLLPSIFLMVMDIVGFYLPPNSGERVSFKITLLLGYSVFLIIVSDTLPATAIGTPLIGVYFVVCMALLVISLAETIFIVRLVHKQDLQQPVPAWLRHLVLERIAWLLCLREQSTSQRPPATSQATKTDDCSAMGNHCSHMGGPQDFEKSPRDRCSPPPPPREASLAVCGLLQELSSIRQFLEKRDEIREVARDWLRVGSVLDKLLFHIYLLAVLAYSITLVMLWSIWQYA
# Chain of human α7 nAChRs transiently expressed in Xenopus laevis oocytes (P36544 23-502 limits assumed): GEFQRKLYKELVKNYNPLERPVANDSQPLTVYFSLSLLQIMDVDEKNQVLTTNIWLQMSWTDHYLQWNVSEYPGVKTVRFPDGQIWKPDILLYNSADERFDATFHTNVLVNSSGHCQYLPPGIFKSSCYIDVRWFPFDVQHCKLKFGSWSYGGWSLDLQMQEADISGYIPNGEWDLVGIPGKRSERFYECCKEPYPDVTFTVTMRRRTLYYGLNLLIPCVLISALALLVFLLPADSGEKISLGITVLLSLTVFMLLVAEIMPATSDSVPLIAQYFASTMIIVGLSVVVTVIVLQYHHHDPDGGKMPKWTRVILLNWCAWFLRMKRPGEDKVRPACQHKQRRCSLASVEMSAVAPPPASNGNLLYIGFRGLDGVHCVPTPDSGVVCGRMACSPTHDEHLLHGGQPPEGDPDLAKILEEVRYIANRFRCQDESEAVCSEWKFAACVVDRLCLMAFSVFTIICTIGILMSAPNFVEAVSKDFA
SMILES,% ACh @ 10 μM Oocyte ([1]; hydrochloride) [% ACh],Active doses [2] [mg/kg],Ki [3] [nM],% ACh @ 10 μM Oocyte [1] [% ACh]
"O=C(NC1C2CCN(CC2)C12CC2)c1cc2ccc(Cl)cc2s1 (single isomer, unassigned; enantiomer1) [65a, 6-chloro-N-(1′-azaspiro[cyclopropane-1,2′-bicyclo[2.2.2]octan]-3′-yl)benzo[b]thiophene-2-carboxamide-enantiomer1 hydrochloride]",682,0.3,,
"Cc1ccc2cc(C(=O)NC3C4CCN(CC4)C34CC4)sc2c1 (single isomer, unassigned; enantiomer1) [68a, 6-methyl-N-(1′-azaspiro[cyclopropane-1,2′-bicyclo[2.2.2]octan]-3′-yl)benzo[b]thiophene-2-carboxamide-enantiomer1 hydrochloride]",769,0.001,,
"CC1(C)[C@H](NC(=O)c2cc3ccc(Cl)cc3s2)C2CCN1CC2 [(R)-12, (R)-6-chloro-N-(2,2-dimethylquinuclidin-3-yl)benzo[b]thiophene-2-carboxamide hydrochloride]",,30,> 10000,765
"O=C(N[C@@H]1C2CCN(CC2)C12CC2)c1ccc2c(c1)OCCO2 [(R)-107, (R)—N-(1′-azaspiro[cyclopropane-1,2′-bicyclo[2.2.2]octan]-3′-yl)-2,3-dihydrobenzo[b][1,4]dioxine-6-carboxamide hydrochloride]",,,> 10000,414
"CC1(C)[C@H](NC(=O)c2cc3ccc(Cl)c(Cl)c3s2)C2CCN1CC2 [(R)-109, (R)-6,7-dichloro-N-(2,2-dimethylquinuclidin-3-yl)benzo[b]thiophene-2-carboxamide hydrochloride]",,,4000,432
"CC1(C)[C@H](NC(=O)c2cc3ccc(Cl)c(F)c3s2)C2CCN1CC2 [(R)-110, (R)-6-chloro-N-(2,2-dimethylquinuclidin-3-yl)-7-fluorobenzo[b]thiophene-2-carboxamide hydrochloride]",,,> 10000,444
"CC1(C)[C@H](NC(=O)c2cc3ccc(F)c(Cl)c3s2)C2CCN1CC2 [(R)-114, (R)-7-chloro-N-(2,2-dimethylquinuclidin-3-yl)-6-fluorobenzo[b]thiophene-2-carboxamide hydrochloride]",,,620,703
"COc1cccc2cc(C(=O)N[C@@H]3C4CCN(CC4)C3(C)C)sc12 [(R)-116, (R)—N-(2,2-dimethylquinuclidin-3-yl)-7-methoxybenzo[b]thiophene-2-carboxamide hydrochloride]",,,600,963
"O=C(N[C@@H]1C2CCN(CC2)C12CC2)c1cc2ccc(Cl)c(Cl)c2s1 [(R)-150, (R)-6,7-dichloro-N-(1′-azaspiro[cyclopropane-1,2′-bicyclo[2.2.2]octan]-3′-yl)benzo[b]thiophene-2-carboxamide hydrochloride]",,,2200,443
"O=C(N[C@@H]1C2CCN(CC2)C12CC2)c1cc2ccc(Cl)c(F)c2s1 [(R)-151, (R)-6-chloro-7-fluoro-N-(1′-azaspiro[cyclopropane-1,2′-bicyclo[2.2.2]octan]-3′-yl)benzo[b]thiophene-2-carboxamide hydrochloride]",,,> 10000,409
"COc1ccc2cc(C(=O)N[C@@H]3C4CCN(CC4)C34CC4)sc2c1F [(R)-155, (R)-7-fluoro-6-methoxy-N-(1′-azaspiro[cyclopropane-1,2′-bicyclo[2.2.2]octan]-3′-yl)benzo[b]thiophene-2-carboxamide hydrochloride]",,,> 10000,513
"Cc1ccc2cc(C(=O)N[C@@H]3C4CCN(CC4)C34CC4)sc2c1Cl [(R)-156, (R)-7-chloro-6-methyl-N-(1′-azaspiro[cyclopropane-1,2′-bicyclo[2.2.2]octan]-3′-yl)benzo[b]thiophene-2-carboxamide hydrochloride]",,,300,403
"O=C(N[C@@H]1C2CCN(CC2)C12CC2)c1cc2ccc(F)c(Cl)c2s1 [(R)-158, (R)-7-chloro-6-fluoro-N-(1′-azaspiro[cyclopropane-1,2′-bicyclo[2.2.2]octan]-3′-yl)benzo[b]thiophene-2-carboxamide hydrochloride]",,,370,180
"O=C(N[C@@H]1C2CCN(CC2)C12CC2)c1cc2ccc(C3CC3)c(F)c2s1 [(R)-159, (R)-6-cyclopropyl-7-fluoro-N-(1′-azaspiro[cyclopropane-1,2′-bicyclo[2.2.2]octan]-3′-yl)benzo[b]thiophene-2-carboxamide hydrochloride]",,,> 10000,24
"COc1cccc2cc(C(=O)N[C@@H]3C4CCN(CC4)C34CC4)sc12 [(R)-161, (R)-7-methoxy-N-(1′-azaspiro[cyclopropane-1,2′-bicyclo[2.2.2]octan]-3′-yl)benzo[b]thiophene-2-carboxamide hydrochloride]",,,660,493
"O=C(N[C@@H]1C2CCN(CC2)C12CC2)c1cc2ccc(Cl)cc2o1 [(R)-163, (R)-6-chloro-N-(1′-azaspiro[cyclopropane-1,2′-bicyclo[2.2.2]octan]-3′-yl)benzofuran-2-carboxamide hydrochloride]",,,2000,446
"CC1(C)[C@H](NC(=O)c2cc3cccc(Cl)c3o2)C2CCN1CC2.Cl [(R)-217, (R)-7-chloro-N-(2,2-dimethylquinuclidin-3-yl)benzofuran-2-carboxamide hydrochloride]",,,1100,473

# — US10183938B2, “Geminal substituted quinuclidine amide compounds as agonists of α-7 nicotonic acetylcholine receptors” (AXOVANT SCIENCES GMBH, priority 2014, dated 2019)
